Results published in ChEMBL document CHEMBL1201862, “PubChem BioAssay data set” (2004).
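48-hour exposure; five concentrations; linearly interpolated endpoints. The concentration for 50% growth inhibition is given as GI50.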 Activity calls are given as the source filed them. Cut-off read from the data, not from the text of the source: active = GI50 up to about 1.1 µM and inactive = higher.

Columns and labels:
Assay in all cases: inhibition of tumour cell growth, NCI panel, 48 h
[1] = test system: A549
[2] = test system: EKVX
[3] = test system: HCC 2998
[4] = test system: HCT-116
[5] = test system: HL-60
[6] = test system: HT-29
[7] = test system: IGROV-1
[8] = test system: K562
[9] = test system: M14
[10] = test system: MDA-MB-231
[11] = test system: MOLT-4
[12] = test system: NCI-H522
[13] = test system: OVCAR-8
[14] = test system: SF-295
[15] = test system: SF-539
[16] = test system: SK-MEL-2
[17] = test system: SN12C
[18] = test system: UACC-257
[19] = test system: HOP-92

Row | SMILES | GI50 [1] | GI50 [2] | GI50 [3] | GI50 [4] | GI50 [5] | GI50 [6] | GI50 [7] | GI50 [8] | GI50 [9] | GI50 [10] | GI50 [11] | GI50 [12] | GI50 [13] | GI50 [14] | GI50 [15] | GI50 [16] | GI50 [17] | GI50 [18] | GI50 [19]
1 | CC(=O)NCC1(c2ccccc2)CCN(CC2COc3ccccc3O2)CC1 (stereo not drawn) [ACOXATRINE] | > 100 µM (inactive) | > 100 µM (inactive) | > 100 µM (inactive) | > 100 µM (inactive) | > 100 µM (inactive) | 39.4 µM (inactive) | > 100 µM (inactive) | > 100 µM (inactive) | > 100 µM (inactive) | > 100 µM (inactive) | > 100 µM (inactive) | > 100 µM (inactive) | > 100 µM (inactive) | > 100 µM (inactive) | > 100 µM (inactive) | > 100 µM (inactive) | > 100 µM (inactive) | > 100 µM (inactive) | 
2 | O=C(Cc1ccccc1)NNc1nc(NNC(=O)c2ccncc2)nc(Nc2ccccc2)n1 |  | > 10 µM (inactive) | > 10 µM (inactive) |  | > 10 µM (inactive) | > 10 µM (inactive) | > 10 µM (inactive) | > 10 µM (inactive) | > 10 µM (inactive) | > 10 µM (inactive) | > 10 µM (inactive) |  | > 10 µM (inactive) |  | > 10 µM (inactive) |  | > 10 µM (inactive) | > 10 µM (inactive) | > 10 µM (inactive)
3 | C[C@]12CC[C@H]3[C@@H](CC=C4C[C@@H](O)CC[C@@]43C)[C@@H]1CC[C@@H]2N(CCO)CCO | 42 µM (inactive) | 19.4 µM (inactive) | 27 µM (inactive) | 26.9 µM (inactive) |  | 29 µM (inactive) | 50.7 µM (inactive) | 71.9 µM (inactive) | 48.4 µM (inactive) | > 100 µM (inactive) | > 100 µM (inactive) | 20.4 µM (inactive) | 88.5 µM (inactive) | 57.5 µM (inactive) | 54.7 µM (inactive) | 76.2 µM (inactive) | 33 µM (inactive) | 52.6 µM (inactive) | 64 µM (inactive)
4 | CC1(C)O[C@@H](CO)[C@H]([C@@]23OC[C@H]4OC(C)(C)OC4[C@@H]2OC(C)(C)O3)O1 (stereo partly drawn) | > 100 µM (inactive) | > 100 µM (inactive) | > 100 µM (inactive) | > 100 µM (inactive) | > 100 µM (inactive) | > 100 µM (inactive) | > 100 µM (inactive) | > 100 µM (inactive) | > 100 µM (inactive) | > 100 µM (inactive) | > 100 µM (inactive) | > 100 µM (inactive) | > 100 µM (inactive) | > 100 µM (inactive) |  | > 100 µM (inactive) | > 100 µM (inactive) |  | > 100 µM (inactive)
5 | COc1cc(OCc2nc3cc(C(F)(F)F)ccc3nc2-c2ccccc2)cc(OC)c1OC | 36.9 µM (inactive) | 91.4 µM (inactive) | > 100 µM (inactive) | 94 µM (inactive) | > 100 µM (inactive) | > 100 µM (inactive) | > 100 µM (inactive) | 61.9 µM (inactive) | 45.4 µM (inactive) | > 100 µM (inactive) | 8.75 µM (inactive) |  | 64.3 µM (inactive) | 47.3 µM (inactive) | 45.8 µM (inactive) | > 100 µM (inactive) |  | > 100 µM (inactive) | > 100 µM (inactive)
6 | Cc1ccc(/N=N/C(=N/NC(=O)c2cc(Cl)ccc2O)c2ccc(N(CCC#N)CCC#N)cc2C)cc1 | 28.6 µM (inactive) | 21.5 µM (inactive) | 24.1 µM (inactive) | 19 µM (inactive) | 4.55 µM (inactive) | 14.6 µM (inactive) | 23.9 µM (inactive) | 17.1 µM (inactive) | 30.6 µM (inactive) | 25.3 µM (inactive) | 53.7 µM (inactive) | 8.95 µM (inactive) | 20.7 µM (inactive) | 21.3 µM (inactive) | 18.5 µM (inactive) | 15.7 µM (inactive) | 28.4 µM (inactive) | 13.2 µM (inactive) | 
7 | NC(=S)N/N=C1\CCc2ccccc2C1 | > 100 µM (inactive) | 27 µM (inactive) | > 100 µM (inactive) | > 100 µM (inactive) | 34.7 µM (inactive) | > 100 µM (inactive) | > 100 µM (inactive) | > 100 µM (inactive) | > 100 µM (inactive) | > 100 µM (inactive) | > 100 µM (inactive) | 55.3 µM (inactive) | > 100 µM (inactive) | > 100 µM (inactive) | > 100 µM (inactive) |  | > 100 µM (inactive) | > 100 µM (inactive) | > 100 µM (inactive)
8 | CNC(=O)C1CCCN1C(=O)C(Cc1c[nH]cn1)NC(=O)C1CCC(=O)N1 (stereo not drawn) | > 100 µM (inactive) | > 100 µM (inactive) | > 100 µM (inactive) | > 100 µM (inactive) | > 100 µM (inactive) | > 100 µM (inactive) | > 100 µM (inactive) | > 100 µM (inactive) | > 100 µM (inactive) | > 100 µM (inactive) | > 100 µM (inactive) | > 100 µM (inactive) | > 100 µM (inactive) | > 100 µM (inactive) |  |  | > 100 µM (inactive) |  | > 100 µM (inactive)
9 | C=C(C)[C@H]1CC(=O)/C(C)=C\CC/C(C)=C/CC[C@@]2(C)O[C@@H]2C1 | 15.8 µM (inactive) |  | 34.5 µM (inactive) | 16 µM (inactive) | 27.5 µM (inactive) | 16.3 µM (inactive) | 29 µM (inactive) | 28.4 µM (inactive) | 32.5 µM (inactive) | 34.2 µM (inactive) | 31.8 µM (inactive) |  | 35.5 µM (inactive) | 34.3 µM (inactive) | 20 µM (inactive) | 35.8 µM (inactive) | 20.8 µM (inactive) | 81.7 µM (inactive) | 48.5 µM (inactive)
10 | O=C1/C(=C\c2cccc(Oc3ccccc3)c2)S(=O)(=O)C(c2ccccc2)N1Cc1ccccc1 (stereo not drawn) | 49.2 µM (inactive) | 25.8 µM (inactive) | 28.7 µM (inactive) | 31 µM (inactive) | 11.7 µM (inactive) |  |  | 26 µM (inactive) | 27.4 µM (inactive) | 25.6 µM (inactive) | 0.83 µM (active) | 13.9 µM (inactive) | 17.8 µM (inactive) | 55.8 µM (inactive) | 36.4 µM (inactive) | 16.3 µM (inactive) | 26.6 µM (inactive) | 22.9 µM (inactive) | 19.3 µM (inactive)
11 | Cc1nnc(N)nc1/C=C/c1c(O)ccc2ccccc12 | 34 µM (inactive) | 13.9 µM (inactive) | 19.1 µM (inactive) | 30.8 µM (inactive) | 28.2 µM (inactive) | 27 µM (inactive) | 13.7 µM (inactive) | 38.5 µM (inactive) | 19.4 µM (inactive) | > 100 µM (inactive) | 22.5 µM (inactive) |  | 35.2 µM (inactive) | 18.6 µM (inactive) |  | 15.2 µM (inactive) | 37.5 µM (inactive) | 32.2 µM (inactive) | 21.3 µM (inactive)
12 | O=C(/C=C/c1ccc(Cl)cc1)c1nc2ccccc2[nH]1 | 25.4 µM (inactive) | 25.7 µM (inactive) | 12.8 µM (inactive) | 16.7 µM (inactive) |  | 21.5 µM (inactive) | 38.6 µM (inactive) | 5.58 µM (inactive) | 31.8 µM (inactive) | 23.1 µM (inactive) |  | 28.2 µM (inactive) | 34.8 µM (inactive) | 22 µM (inactive) | 6.98 µM (inactive) | > 100 µM (inactive) | 37.2 µM (inactive) | 29 µM (inactive) | > 100 µM (inactive)
13 | O=C1/C(=C\c2ccc([N+](=O)[O-])cc2)CS(=O)(=O)C/C1=C/c1ccc([N+](=O)[O-])cc1 | 1.85 µM (inactive) | 1.21 µM (inactive) | 0.247 µM (active) | 0.288 µM (active) | 0.324 µM (active) | 0.357 µM (active) | 0.641 µM (active) |  | 0.74 µM (active) | 0.193 µM (active) |  | 0.277 µM (active) | 0.107 µM (active) | 1.74 µM (inactive) | 0.189 µM (active) | 1.17 µM (inactive) |  | 1.81 µM (inactive) | 1.91 µM (inactive)
14 | Cn1nc2n(c1=O)CCCN2 | > 100 µM (inactive) | > 100 µM (inactive) | > 100 µM (inactive) | > 100 µM (inactive) | > 100 µM (inactive) | > 100 µM (inactive) | > 100 µM (inactive) | > 100 µM (inactive) |  | > 100 µM (inactive) |  | > 100 µM (inactive) | > 100 µM (inactive) | > 100 µM (inactive) | > 100 µM (inactive) |  | > 100 µM (inactive) | > 100 µM (inactive) | > 100 µM (inactive)
15 | OC(c1cccnc1)C(F)(F)c1nc2ccccc2o1 (stereo not drawn) |  | > 100 µM (inactive) | > 100 µM (inactive) | > 100 µM (inactive) | > 100 µM (inactive) | > 100 µM (inactive) | > 100 µM (inactive) | 56.5 µM (inactive) |  | > 100 µM (inactive) | > 100 µM (inactive) |  | > 100 µM (inactive) |  | > 100 µM (inactive) | > 100 µM (inactive) |  | > 100 µM (inactive) | > 100 µM (inactive)
16 | CC(C)(C)[Si](C)(C)OCC#C[C@@]1(O)CCCCC1CC(Sc1ccccc1)Sc1ccccc1 (stereo partly drawn) | 14.9 µM (inactive) | 16.4 µM (inactive) | 15.6 µM (inactive) | 11.8 µM (inactive) | 18.8 µM (inactive) | 14 µM (inactive) | 16.1 µM (inactive) | 14.2 µM (inactive) | 18.2 µM (inactive) | 16.9 µM (inactive) | 11.6 µM (inactive) | 11.4 µM (inactive) | 16.5 µM (inactive) | 14.7 µM (inactive) |  | 15.8 µM (inactive) | 11.6 µM (inactive) | 15.5 µM (inactive) | 15.6 µM (inactive)
